Measured values published in a melting point compilation (Tetko et al.; mined from patent text by program, amines drawn as free bases though some values may be those of a salt).

Row | SMILES | melting point [°C]
1 | CCCCN1CCC(NS(=O)(=O)c2ccc(NC(C)=O)cc2)CC1 | 174 to 175
2 | CSC(=C(C#N)C#N)N(C)N=Cc1ccccc1 | 159 to 160
3 | CC(=O)N(c1cc([N+](=O)[O-])c(F)cc1Cl)S(=O)(=O)CCl | 183 to 187
4 | COc1ccc(-c2cnnc(-c3ccc(C(F)(F)F)cc3F)c2N)cc1 | 215 to 216
5 | CC(=O)Nc1ccc(C#N)c(F)c1 | 190 to 192
6 | NS(=O)(=O)c1ccccc1OC(F)(F)C(F)Cl (centres undefined) | 113 to 116
7 | c1ccc(COc2ccc(-c3cc4ccccc4[nH]3)cc2)cc1 | 251
8 | O=C(Cc1cc(F)cc(F)c1)N[C@@H](Cc1cc2ccccc2[nH]1)C(=O)N[C@@H]1C(=O)Nc2ccccc2S[C@@H]1c1ccccc1 | 85 to 90
9 | COC1CCCCC1(O)c1ccncc1 (centres undefined) | 98 to 101
10 | CCNC1=NS(=O)(=O)c2sc(Cl)cc2N1 | 271 to 274
11 | COc1cc(C(=O)Oc2ccc3c(OC(=O)c4ccc(O)c(OC)c4)c4cc(OC(=O)c5ccc(O)c(OC)c5)ccc4cc3c2)ccc1O | 206
12 | Cc1cccc(-n2c(=O)[nH]c3ccc(F)cc3c2=O)c1 | 278 to 279
13 | CCOC(=O)c1cn(C2CC2)c2c(F)c(F)c(F)c(N)c2c1=O | 223 to 225
14 | CC(=O)N1CCc2nc(Nc3nc(-c4ccccc4)cs3)nc(-c3ccccc3)c2C1 | 130 to 132
15 | Oc1ccc(SSc2ccc(O)cc2)cc1 | 144 to 146
16 | Nc1ncc(-c2cccc(Cl)c2Cl)nc1C(=O)Nc1cccnc1 | 239 to 241
17 | COc1cccc(CCOc2ccc(C(=O)N/C(=C\c3ccc(Cl)cc3)C(=O)NCCO)cc2)c1 | 54 to 56
18 | CCc1cc2c(C3=NNC(=O)CC3C)cc(Cl)cn2n1 (centres undefined) | 172 to 174
19 | OCc1cnoc1-c1ccc(F)cc1 | 41 to 42
20 | NC(=O)CCc1ccncc1 | 164 to 166

Row | SMILES | melting point [°C]
21 | O=C(Nc1cccc(-c2ccnc3c(C(=O)c4cccs4)cnn23)c1)c1cnc[nH]1 | 280 to 282
22 | Cc1ccccc1CCOS(N)(=O)=O | 50 to 52
23 | O=C(O)CNC(=O)c1ccc([N+](=O)[O-])c(F)c1 | 136 to 138
24 | O=C(NCC1CC1)c1[nH]c2ccc(Cl)cc2c1S(=O)(=O)c1ccccc1 | 232 to 234
25 | O=C(OC(Cn1ccnc1)CS(=O)(=O)c1ccccc1)c1ccc(Cl)cc1Cl (centres undefined) | 106 to 109
26 | O=C(Nc1nc(C(Cl)(Cl)Cl)ns1)c1ccccc1Cl | 142
27 | BrCC[Si](CCBr)(CCBr)CCBr | 90 to 91
28 | Cc1cccc(C(=O)NC(CC(C)C)C(=O)O)c1SSc1c(C)cccc1C(=O)NC(CC(C)C)C(=O)O (centres undefined) | 210 to 211
29 | Nc1nc2c(s1)CC(N1CCN(c3ccc(Br)cn3)CC1)CC2 (centres undefined) | 246 to 248
30 | COC(=O)Oc1ccc(-c2ccc(=O)n(Cc3ccc(Cl)cc3F)c2)cc1 | 124
31 | CC1(C)Cc2cc(OCC(=O)O)c(Cl)c(Cl)c2C1=O | 182
32 | CC(=O)c1ccc(NS(C)(=O)=O)c(Br)c1 | 124 to 126
33 | N#CCc1cc(O)cc2cc(-c3ccc(O)cc3)oc12 | 128 to 130
34 | O=C(C1CCC(Nc2nccc(-n3cc(Cc4ccc(-c5ccncc5)cc4)nn3)n2)CC1)N1CCC(O)CC1 (centres undefined) | 266 to 267
35 | COC(=O)c1ccsc1 | 84 to 85
36 | COC1CCCN(Nc2nc(Cl)nc3c2ncn3C2OC(CCl)C(O)C2O)C1 (centres undefined) | 200 to 202
37 | CN1CCC(C2CCN(c3ncc4ncnc(Nc5ccc(F)c(Cl)c5)c4n3)CC2)CC1 | 159 to 162
38 | C[C@@H](Nc1nnc(-c2ccccc2)c2occc12)C1CCCCC1 | 126 to 130
39 | N#Cc1cccc2c1CCc1cc(C(F)(F)F)ccc1S2 | 113 to 114
40 | O=C(O)[C@H]1O[C@@H]1C1CCCCC1 | 64 to 65

Row | SMILES | melting point [°C]
41 | O=C(O)Cc1c(C(=O)c2ccc(Cl)cc2Cl)[nH]c2cc(Cl)ccc12 | 190 to 192
42 | COc1ccc(C(NCCNC(c2ccccc2)c2ccc(OC)cc2)c2ccccc2)cc1 (centres undefined) | 97 to 98
43 | O=C(c1ccc(Cl)cc1)C(Cn1cncn1)c1ccc(Cl)cc1 (centres undefined) | 126 to 128
44 | O=C(CCCCC(=O)c1ccc(F)cc1)c1ccc(F)cc1 | 165 to 167
45 | O=C1CCCc2cc(CCN3CCN(c4nsc5ccccc45)CC3)ccc2N1 | 173 to 174
46 | Cc1cc2c(c3ccc(=O)[nH]c13)OC(CC(=O)[C@@H](C)N)C2 (some centres undefined) | 222 to 225
47 | O=c1[nH][nH]c(=O)c2c(O)c3ccc(Br)cc3nc12 | 278
48 | O=C(NCCc1ccccc1CCl)c1ccc([N+](=O)[O-])cc1 | 126
49 | COc1ccc(N(C)C(=O)CN2C(=O)c3ccccc3C2=O)c(OC)c1COc1cccc2ccc(C)nc12 | 184 to 185
50 | CCCCC(=N)NC(=O)Nc1ccccc1OCc1ccccc1 | 145 to 147
51 | Cc1cc(OCc2nc3ccccc3s2)ccc1[N+](=O)[O-] | 145 to 147
52 | COc1ccc(OC2SCC(O)C(O)C2O)cn1 (centres undefined) | 159 to 161
53 | CNc1nc(-c2cccc(C(=O)Nc3cccnc3)c2)c2cc(OC)c(OC)cc2n1 | 238 to 240
54 | O=C1N(CC2CCCO2)c2ccc(F)cc2C12COc1cc3c(cc12)CCO3 (centres undefined) | 167 to 169
55 | Cc1cc(-c2ccc(C(F)(F)F)nc2)cc(-c2cccc(-c3ccc(S(N)(=O)=O)s3)c2)n1 | 231 to 233
56 | O=C(c1ccccc1)c1cccc(-c2cccc(Cn3cncn3)c2)c1 | 121
57 | CC(=O)OC1C(COC(=O)c2ccccc2)OC(n2ccc(=O)[nH]c2=O)C1F (centres undefined) | 179 to 180
58 | Nc1ccc(CS(=O)(=O)CCO)cc1CS(=O)(=O)CCO | 183 to 185
59 | CN1CC2(CCN(Cc3ccccc3)CC2)OC1=O | 137 to 138
60 | O=C(Nc1ccc(-c2ncno2)cc1)Oc1ccc([N+](=O)[O-])cc1 | 210 to 212

Further lines, results first:

Row | melting point [°C] | SMILES
61 | 160 to 161 | CCCc1nccn1N=Cc1cc(C(C)(C)C)c(O)c(C(C)(C)C)c1
62 | 189 to 190 | CCc1cc(Oc2ccc(S(C)(=O)=O)nc2)cc2cc(C3=NCC(CC(=O)NC)S3)[nH]c12 (centres undefined)
63 | 181 to 183 | COc1cc2cnn(CCCl)c(=O)c2cc1OC
64 | 130 to 131 | Cc1cc(C)c(S(=O)(=O)NCCCCOc2ccc(-n3ccnc3)cc2)c(C)c1
65 | 191 | Cc1ccc2cccc(OCc3c(Cl)ccc(S(=O)(=O)NC(C)(C)C)c3Cl)c2n1
66 | 202 | N#Cc1ncn2c(C(F)(F)F)cc(-c3cccc(C(F)(F)F)c3)nc12
67 | 141 to 142 | COC(=O)c1cccc(-c2nc(COc3ccc(CO)cc3OC)c(C)o2)c1
68 | 134 to 137 | COc1ccc(N2CCN(c3c(C)c(C)c4c(c3C)CC(C)(CN)O4)CC2)cc1 (centres undefined)
69 | 98.3 to 99.8 | COC(=O)C1c2ccc(OC)cc2SC1c1ccc(OC)cc1 (centres undefined)
70 | 200 to 210 | CCOC(=O)c1cnc2c(OC)nc(OC)cc2c1Cl
71 | 188 to 190 | CCN1c2ncc(CNc3cccc(N)c3)cc2C(=O)N(C)c2ccc(Cl)nc21
72 | 151 to 152 | Cc1ccc(P(=O)(C(=O)c2c(C)cc(C)cc2C)C(=O)c2c(C)cc(C)cc2C)cc1
73 | 240 to 241 | CN1CCNC(=S)N1c1cc(Cl)cc(Cl)c1
74 | 44 to 45 | COC(=O)CCCC#Cc1cc(F)cc(C(F)(F)F)c1
75 | 170 to 171 | COc1cc(C2COc3c(C)c(C)c(NC(=O)CC(C)(C)C)c(C)c32)ccc1C(C)C (centres undefined)
76 | 97 to 99 | CCCCn1cnc2c(Oc3ccccc3)nc(Nc3ccc(OC)cc3OC)nc21
77 | 164 to 167 | CC(=O)Nc1ccc(-n2ccnc2SCc2ccccc2N2CCOCC2)nc1
78 | 87 to 88 | CCC1(C)CC(=O)C(C(=O)Nc2ccc(Cl)c(C(F)(F)F)c2)C(=O)C1 (centres undefined)
79 | 117 to 121 | CCc1cccc(CC)c1NCc1n[nH]c(=S)n1C
80 | 123 to 125 | CCN(CCOc1ccc(Cl)c2[nH]cc(Cl)c12)c1ccsc1

Row | melting point [°C] | SMILES
81 | 204 | O=C(O)c1c(-c2ccccc2)nc2c(C(F)(F)F)cccc2c1O
82 | 163 | COC(C)(CC(=O)Nc1cccc(OC(=O)NC2CCCCC2)c1)OC
83 | 167 to 169 | Cc1c(NC(=O)CC(C)(C)C)c(C)c2c(c1-c1cncnc1)OCC2c1ccc(C(C)C)cc1 (centres undefined)
84 | 134 to 135 | CC(=O)CCOc1c(-c2ccc(S(C)(=O)=O)cc2)cnn(-c2ccc(F)c(F)c2)c1=O
85 | 253 to 255 | O=C(Cc1ccccc1)Nc1cnc2ccccc2c1O
86 | 86 to 87 | CCOC(=O)C(=Cc1cc(OC)c(OC)cc1OC)C(=O)OCC
87 | 143 to 145 | COC(=O)NC1CN(C(=O)c2cc(OC)c(OC)c(OC)c2)CCN1C(=O)C1=Cc2cc(OC)c(OC)cc2CCC1 (centres undefined)
88 | 169 to 171 | C=C1C(=O)N(CC(=O)O)C(=O)N1Cc1cccc([N+](=O)[O-])c1
89 | 78 to 82 | C=CCNc1nc(NCC=C)nc(N2CCN(C(=O)n3ccnc3)CC2)n1
90 | 166 | CCOc1cc(OCCO)cc2c1C(=O)N(COC(=O)c1c(Cl)cccc1Cl)S2(=O)=O
91 | 112 to 113 | CC[C@@H](c1ccccc1)N(Cc1ccc(C(=O)O)cn1)S(=O)(=O)c1ccc(Cl)cc1
92 | 161 to 162 | Cc1ccc(-c2ncc(N(C)CCCCOCC(=O)O)nc2-c2ccc(C)cc2)cc1
93 | 140 to 141 | CCN(CC)CCOc1ccc(N(C(=O)Nc2ccccc2)C2=NN(c3ccccc3)CC2)cc1
94 | 172 to 176 | COc1cc(N2CCN([C@H](C)c3ccc(OC)c(OC)c3)CC2)ccc1Cl
95 | 154 to 162 | CCc1n[nH]c(C(N)=O)c1NC(=O)c1cc(S(C)(=O)=O)ccc1OCC(C)C
96 | 90 to 91 | C[Si](C)(CCSCCNC(=O)n1cc(F)c(=O)[nH]c1=O)c1ccccc1
97 | 244 to 246 | Oc1ccc(Nc2nc(NCc3ccco3)nc(-n3ccnc3)n2)cc1
98 | 225 to 227 | CCN1C(=O)CCCc2c1ccc(Nc1ncc(Cl)c(Nc3ccccc3C(=O)NC)n1)c2OC
99 | 133 to 135 | C=Cc1cc(CNC(=O)OC(C)(C)C)cc(Cl)c1NS(C)(=O)=O
